# How the values were obtained:
# Format in all cases: functional
# [1] = system: Acinetobacter baumannii; assay: Antibacterial activity against Acinetobacter baumannii ATCC 19606 after 18 hrs by broth dilution method; conditions: ATCC 19606 = CIP 70.34 = JCM 6841, 18 h
# [2] = system: Escherichia coli; assay: Antibacterial activity against Escherichia coli 700 expressing TolC after 18 hrs by broth dilution method; conditions: Escherichia coli, 700, 18 h
# [3] = system: Escherichia coli; assay: Antibacterial activity against TolC deficient Escherichia coli 701 after 18 hrs by broth dilution method; conditions: Escherichia coli, 701, 18 h
# [4] = system: Pseudomonas aeruginosa; assay: Antibacterial activity against Pseudomonas aeruginosa PAO1 ATCC BAA-47 after 18 hrs by broth dilution method; conditions: PAO1 ATCC BAA-47, 18 h
# [5] = system: Pseudomonas aeruginosa; assay: Antibacterial activity against Pseudomonas aeruginosa PAO1 harboring oprM deltamexAB after 18 hrs by broth dilution method; conditions: PAO1, 18 h
# [6] = system: Stenotrophomonas maltophilia; assay: Antibacterial activity against Stenotrophomonas maltophilia ATCC 13637 after 18 hrs by broth dilution method; conditions: ATCC 13637, 18 h
# [7] = system: Klebsiella pneumoniae; assay: Antibacterial activity against Klebsiella pneumoniae ATCC 700603 after 18 hrs by broth dilution method; conditions: ATCC 700603, 18 h
# [8] = system: Bacillus subtilis; assay: Antibacterial activity against Bacillus subtilis BD54 after 18 hrs by broth dilution method; conditions: BD54, 18 h
# [9] = system: Bacillus anthracis; assay: Antibacterial activity against Bacillus anthracis Sterne after 18 hrs by broth dilution method
# [10] = system: Staphylococcus aureus; assay: Antibacterial activity against Staphylococcus aureus ATCC 25923 after 18 hrs by broth dilution method; conditions: ATCC 25923, 18 h
# [11] = system: Staphylococcus aureus; assay: Antibacterial activity against methicillin-resistant Staphylococcus aureus 1094 after 18 hrs by broth dilution method; conditions: Staphylococcus aureus, 1094, 18 h
# [12] = system: Enterococcus faecalis; assay: Antibacterial activity against Enterococcus faecalis ATCC 29212 after 18 hrs by broth dilution method; conditions: ATCC 29212, 18 h
# [13] = system: Enterococcus faecalis; assay: Antibacterial activity against vancomycin-resistant Enterococcus faecalis ATCC 51575 after 18 hrs by broth dilution method; conditions: ATCC 51575, 18 h
# [14] = system: Burkholderia cepacia; assay: Antibacterial activity against Burkholderia cepacia ATCC 39277 after 18 hrs by broth dilution method; conditions: ATCC 39277, 18 h
# [15] = system: Burkholderia cepacia; assay: Antibacterial activity against Burkholderia cepacia ATCC 55792 after 18 hrs by broth dilution method; conditions: ATCC 55792, 18 h
# [16] = system: Escherichia coli; assay: Antibacterial activity against Escherichia coli ATCC 29425 after 18 hrs by broth dilution method; conditions: ATCC 29425, 18 h
# [17] = system: Escherichia coli; assay: Antibacterial activity against Escherichia coli ATCC 29425 after 16 to 18 hrs by agar dilution method
# [18] = system: Staphylococcus aureus; assay: Antibacterial activity against Staphylococcus aureus ATCC 25923 after 16 to 18 hrs by agar dilution method
# [19] = system: Enterococcus faecalis; assay: Antibacterial activity against Enterococcus faecalis ATCC 29212 after 16 to 18 hrs by agar dilution method
# [20] = system: Klebsiella pneumoniae; assay: Antibacterial activity against Klebsiella pneumoniae ATCC 13882 after 18 hrs by broth dilution method; conditions: ATCC 13882, 18 h
Compound,MIC [1] [mg/L],MIC [2] [mg/L],MIC [3] [mg/L],MIC [4] [mg/L],MIC [5] [mg/L],MIC [6] [mg/L],MIC [7] [mg/L],MIC [8] [mg/L],MIC [9] [mg/L],MIC [10] [mg/L],MIC [11] [mg/L],MIC [12] [mg/L],MIC [13] [mg/L],MIC [14] [mg/L],MIC [15] [mg/L],MIC [16] [mg/L],MIC [17] [mg/L],MIC [18] [mg/L],MIC [19] [mg/L],MIC [20] [mg/L]
O=c1ccn(C2CC2)c2cc(N3CCNCC3)c(F)cc12,> 80,> 80,> 80,> 80,80,> 80,> 80,> 80,> 80,> 80,> 80,> 80,> 80,> 80,> 80,> 80,> 64,> 64,> 64,> 80
CCN1CCN(c2cc3c(cc2F)c(=O)c(C(=O)O)cn3C2CC2)CC1 [ENROFLOXACIN],0.235,0.049,≤ 0.01,4.4,0.078,0.098,0.625,0.078,0.078,0.156,5,0.625,0.625,0.098,0.625,0.05,< 0.06,0.13,0.13,0.098
CCN1CCN(c2cc3c(cc2F)c(=O)ccn3C2CC2)CC1,> 80,> 80,> 80,> 80,> 80,> 80,> 80,> 80,> 80,> 80,> 80,> 80,> 80,> 80,> 80,> 80,> 64,> 64,> 64,> 80
CC1CN(c2c(F)cc3c(=O)ccn(C4CC4)c3c2F)CCN1 (stereo not drawn),> 80,> 80,15,> 80,40,> 80,> 80,> 80,80,> 80,> 80,> 80,> 80,> 80,> 80,> 80,> 64,> 64,> 64,> 80
O=C(O)c1cn(C2CC2)c2cc(N3CCNCC3)c(F)cc2c1=O [CIPROFLOXACIN],1.25,,,0.313,0.02,0.156,0.313,0.156,,0.625,20,1.25,0.625,0.078,0.625,< 0.02,< 0.06,0.5,0.5,0.039
O=CN1CCN(c2cc3c(cc2F)c(=O)c(C(=O)O)cn3C2CC2)CC1,2.5,0.313,≤ 0.078,10,≤ 0.078,1.25,5,0.117,0.235,0.313,40,0.625,2.5,0.313,1.25,0.5,0.5,0.5,1,0.156
CCn1cc(C(=O)O)c(=O)c2cc(F)c(N3CCNCC3)cc21 [NORFLOXACIN],10,0.059,0.039,1.25,0.039,1.25,0.938,0.625,0.313,1.25,40,2.5,2.5,1.25,2.5,0.12,0.01,2,2,0.117
CC1CN(c2c(F)cc3c(=O)c(C(=O)O)cn(C4CC4)c3c2F)CCN1 (stereo not drawn),0.313,≤ 0.02,≤ 0.02,1.25,0.039,0.039,0.313,0.078,0.078,0.235,10,0.625,0.625,0.078,0.235,,,,,≤ 0.02
CCn1ccc(=O)c2cc(F)c(N3CCNCC3)cc21,> 80,40,5,> 80,40,> 80,> 80,80,80,> 80,> 80,> 80,> 80,> 80,> 80,40,64,> 64,32,40
CCn1ccc(=O)c2cc(F)c(N3CCN(C=O)CC3)cc21,> 80,40,40,> 80,80,> 80,> 80,> 80,> 80,> 80,> 80,> 80,> 80,> 80,> 80,40,> 64,> 64,> 64,> 80
O=CN1CCN(c2cc3c(cc2F)c(=O)ccn3C2CC2)CC1,> 80,> 80,> 80,> 80,> 80,> 80,> 80,> 80,> 80,> 80,> 80,> 80,> 80,> 80,> 80,> 80,> 64,> 64,> 64,> 80
